Data reported in patent US7598269B2, “Methods and compositions for treating amyloid-related diseases” (Bellus Health (International) Limited, priority 2003, dated 2009).

Experiments:
[1] = target: T1, Aβ42 (Homo sapiens, UniProt P05067); assay: Short term treatment of TgCRND8 mice: Aβ42 levels in plasma and brain (ELISA); assay type: in vivo, Mouse; settings: for Aβ42 Change: plasma, TgCRND8 mice
T1 construct: from tissue; host or cells: plasma and brain homogenate of TgCRND8 transgenic mice (hAPP transgene)
Source text: (§1) Transgenic mice, […]8, expressing the human amyloid precursor protein (hAPP) develop a pathology resembling Alzheimer's disease. In particular, high levels of Aβ40 and Aβ42 have been documented in the plasma and the brain of these animals at 8-9 weeks of age, followed by early accumulation of amyloid plaques similar to the senile plaques observed in […]. These animals also display progressive cognitive deficits that parallel the appearance of degenerative changes. See, […], et al., J. Biol. Chem. 276, 21562-70 (2001). The short term therapeutic effect of 19 compounds of the invention was studied. […] The following abbreviations are used to designate these animals from the 3rd and 4th generation backcross in the present protocol: TgCRND8-2.B6C3F1 (N3); TgCRND8-2.B6C3F1 (N4). Baseline animals (Group 1) consisted of naive TgCRND8-2.B6C3F1(N3) at 11±1 weeks of age. These mice were used to determine the Aβ levels in the plasma and brain of naive transgenic animals at the initiation of treatment. […] At the end of the treatment periods, plasma and perfused brains were collected for quantification of Aβ levels. […] Plasma samples were immediately frozen and stored at -80° C. pending analysis. The brains were removed, frozen, and stored at -80° C. awaiting analysis. […] Samples were spun at 15000 g for 20 minutes and the supernatants were transferred to fresh tubes. […] The tubes were vortexed for 30 seconds and frozen at -80° C. […] Samples were thawed at room temperature, sonicated at 80° C. for 15 minutes and frozen again. This cycle was repeated 3 times to ensure homogeneity and samples were returned to -80° C. pending analysis. Aβ levels were evaluated in plasma and brain samples by ELISA using Human Aβ40 and Aβ42 Fluorometric ELISA kits from Biosource (Cat. […] In short, samples were thawed at room temperature, sonicated for 5 minutes at 80° C. (sonication for brain homogenates; no sonication for plasma samples) and kept on ice. Aβ peptides were captured using 100 μl of the diluted samples to the plate and incubated without shaking at 4° C. overnight. The samples were aspirated and the wells were rinsed 4 times with wash buffer obtained from the Biosource ELISA kit. The anti-Aβ40 or anti-Aβ42 rabbit polyclonal antiserum (specific for the Aβ40 or Aβ42 peptide) was added (100 μl) and the plate was incubated at room temperature for 2 hours with shaking. The wells were aspirated and washed 4 times before adding 100 μl of the alkaline phosphatase labeled anti-rabbit antibody and incubating at room temperature for 2 hours with shaking. The plates were then rinsed 5 times and the fluorescent substrate (100 μl) was added to the plate. The plate was incubated for 35 minutes at room temperature and the plate was read using a titer plate reader at an excitation wavelength of 460 nm and emission at 560 nm. Compounds were scored based on their ability to modulate levels of Aβ peptides in the plasma and the cerebral soluble/insoluble levels in the brain. Levels of Aβ observed in the plasma and brain of treated animals were normalized using values from vehicle-treated (water) or methylcellulose-treated control groups and ranked according to the strength of the pharmacological effect. Increases in the levels of Aβ peptides are indicated using “+” symbols, while decreases in the levels of Aβ peptides are indicated using “-” symbols. The strongest effects are recorded as “+++” or “---” while the weakest are shown as “+” or “-”.

[2] = target: T2, Aβ40 (Homo sapiens, UniProt P05067); assay: Short term treatment of TgCRND8 mice: Aβ40 levels in plasma and brain (ELISA); assay type: in vivo, Mouse; settings: for Aβ40 Change: plasma, TgCRND8 mice
T2 construct: from tissue; host or cells: plasma and brain homogenate of TgCRND8 transgenic mice (hAPP transgene)
Source text: as §1

[3] = brain homogenate, vehicle group, Day 14, 250 mg/kg daily subcutaneous
[4] = brain homogenate, vehicle group, Day 28, 250 mg/kg daily subcutaneous
[5] = vehicle (water) group, Day 14, 250 mg/kg daily subcutaneous
[6] = vehicle (water) group, Day 28, 250 mg/kg daily subcutaneous
[7] = brain homogenate, methylcellulose group, Day 14, 250 mg/kg daily oral
[8] = brain homogenate, methylcellulose group, Day 28, 250 mg/kg daily oral
[9] = methylcellulose group, Day 14, 250 mg/kg daily oral

T2 sequence (P05067 672-711 limits assumed): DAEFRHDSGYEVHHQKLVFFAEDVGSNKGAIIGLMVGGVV
T1 sequence (P05067 672-713 limits assumed): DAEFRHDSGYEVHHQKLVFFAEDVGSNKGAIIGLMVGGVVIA

Row | Compound | Aβ42 Change Insoluble [1, 3] | Aβ42 Change Insoluble [1, 4] | Aβ42 Change Soluble [1, 4] | Aβ42 Change [1, 5] | Aβ42 Change [1, 6] | Aβ40 Change Insoluble [2, 3] | Aβ40 Change Soluble [2, 3] | Aβ40 Change Insoluble [2, 4] | Aβ40 Change Soluble [2, 4] | Aβ40 Change [2, 5] | Aβ40 Change [2, 6] | Aβ42 Change Soluble [1, 3] | also measured
1 | CCCC(CO)NCCCS(=O)(=O)O (racemic) [Compound CA, 3-[(dl)-1-hydroxy-2-pentyl]amino-1-propane-sulfonic acid] | −− (decreases of 20 to 38% are scored as “−−”) | + (increases in the levels of Aβ (relative to untreated control) of 20 to 39% are scored as “+”) | + (increases in the levels of Aβ (relative to untreated control) of 20 to 39% are scored as “+”) | +++ (increases of 70% or higher are scored as “+++”) | +++ (increases of 70% or higher are scored as “+++”) | − (Decreases in the levels of Aβ of 5 to 19% are scored as “−”) | + (increases in the levels of Aβ (relative to untreated control) of 20 to 39% are scored as “+”) | ++ (increases of 40 to 69% are scored as “++”) | + (increases in the levels of Aβ (relative to untreated control) of 20 to 39% are scored as “+”) | +++ (increases of 70% or higher are scored as “+++”) | +++ (increases of 70% or higher are scored as “+++”) | – | –
2 | NCCSS(=O)(=O)O [BE] | +++ (increases of 70% or higher are scored as “+++”) | +++ (increases of 70% or higher are scored as “+++”) | +++ (increases of 70% or higher are scored as “+++”) | +++ (increases of 70% or higher are scored as “+++”) | +++ (increases of 70% or higher are scored as “+++”) | – | + (increases in the levels of Aβ (relative to untreated control) of 20 to 39% are scored as “+”) | − (Decreases in the levels of Aβ of 5 to 19% are scored as “−”) | + (increases in the levels of Aβ (relative to untreated control) of 20 to 39% are scored as “+”) | ++ (increases of 40 to 69% are scored as “++”) | +++ (increases of 70% or higher are scored as “+++”) | +++ (increases of 70% or higher are scored as “+++”) | –
3 | CCCCCNCCCS(=O)(=O)O [CF, 3-pentylamino-1-propanesulfonic acid] | −− (decreases of 20 to 38% are scored as “−−”) | + (increases in the levels of Aβ (relative to untreated control) of 20 to 39% are scored as “+”) | – | – | – | − (Decreases in the levels of Aβ of 5 to 19% are scored as “−”) | ++ (increases of 40 to 69% are scored as “++”) | – | + (increases in the levels of Aβ (relative to untreated control) of 20 to 39% are scored as “+”) | – | – | − (Decreases in the levels of Aβ of 5 to 19% are scored as “−”) | –
4 | CC[C@@H](CO)NCCCS(=O)(=O)O [CU, (S)-3-(1-hydroxy-2-butylamino)-1-propanesulfonic acid] | − (Decreases in the levels of Aβ of 5 to 19% are scored as “−”) | +++ (increases of 70% or higher are scored as “+++”) | ++ (increases of 40 to 69% are scored as “++”) | – | + (increases in the levels of Aβ (relative to untreated control) of 20 to 39% are scored as “+”) | – | + (increases in the levels of Aβ (relative to untreated control) of 20 to 39% are scored as “+”) | +++ (increases of 70% or higher are scored as “+++”) | – | – | + (increases in the levels of Aβ (relative to untreated control) of 20 to 39% are scored as “+”) | ++ (increases of 40 to 69% are scored as “++”) | –
5 | CC(CO)NCCCS(=O)(=O)O (centres unmarked) [CW, 3-(1-hydroxy-2-propylamino)-1-propanesulfonic acid] | – | – | – | ++ (increases of 40 to 69% are scored as “++”) | + (increases in the levels of Aβ (relative to untreated control) of 20 to 39% are scored as “+”) | – | – | – | – | ++ (increases of 40 to 69% are scored as “++”) | ++ (increases of 40 to 69% are scored as “++”) | – | Aβ42 Change (total levels) ([1]; brain homogenate, vehicle group, Day 28, total Aβ42, soluble and insoluble not measured independently): ++ (increases of 40 to 69% are scored as “++”); Aβ40 Change (total levels) ([2]; brain homogenate, vehicle group, Day 28, total Aβ40, soluble and insoluble not measured independently): + (increases in the levels of Aβ (relative to untreated control) of 20 to 39% are scored as “+”)
6 | CCCCCCCNCCCS(=O)(=O)O [CX, 3-heptylamino-1-propane-sulfonic acid] | − (Decreases in the levels of Aβ of 5 to 19% are scored as “−”) | +++ (increases of 70% or higher are scored as “+++”) | ++ (increases of 40 to 69% are scored as “++”) | ++ (increases of 40 to 69% are scored as “++”) | + (increases in the levels of Aβ (relative to untreated control) of 20 to 39% are scored as “+”) | − (Decreases in the levels of Aβ of 5 to 19% are scored as “−”) | − (Decreases in the levels of Aβ of 5 to 19% are scored as “−”) | + (increases in the levels of Aβ (relative to untreated control) of 20 to 39% are scored as “+”) | – | ++ (increases of 40 to 69% are scored as “++”) | ++ (increases of 40 to 69% are scored as “++”) | + (increases in the levels of Aβ (relative to untreated control) of 20 to 39% are scored as “+”) | –
7 | CCCCCCCCNCCCS(=O)(=O)O [CZ, 3-octylamino-1-propanesulfonic acid] | – | – | – | – | – | – | – | – | – | – | – | – | Aβ42 Change Insoluble [1, 7]: −−− (decreases of 39% or more are scored as “−−−”); Aβ42 Change Soluble [1, 7]: −−− (decreases of 39% or more are scored as “−−−”); Aβ42 Change Insoluble [1, 8]: −− (decreases of 20 to 38% are scored as “−−”); Aβ42 Change Soluble [1, 8]: − (Decreases in the levels of Aβ of 5 to 19% are scored as “−”); Aβ42 Change [1, 9]: − (Decreases in the levels of Aβ of 5 to 19% are scored as “−”); Aβ42 Change ([1]; methylcellulose group, Day 28, 250 mg/kg daily oral): − (Decreases in the levels of Aβ of 5 to 19% are scored as “−”); Aβ40 Change Insoluble [2, 7]: −− (decreases of 20 to 38% are scored as “−−”); Aβ40 Change Soluble [2, 7]: − (Decreases in the levels of Aβ of 5 to 19% are scored as “−”); Aβ40 Change Soluble [2, 8]: − (Decreases in the levels of Aβ of 5 to 19% are scored as “−”); Aβ40 Change [2, 9]: − (Decreases in the levels of Aβ of 5 to 19% are scored as “−”)
8 | O=S(=O)(O)CCCNCCc1c[nH]c2ccccc12 [Compound BT, 3-{[2-(3-indolyl)ethyl]-amino}-1-propanesulfonic acid] | – | – | – | – | – | – | – | – | – | – | – | – | Aβ42 Change Soluble [1, 7]: ++ (increases of 40 to 69% are scored as “++”); Aβ42 Change Soluble [1, 8]: ++ (increases of 40 to 69% are scored as “++”); Aβ40 Change Insoluble [2, 7]: +++ (increases of 70% or higher are scored as “+++”); Aβ40 Change Insoluble [2, 8]: ++ (increases of 40 to 69% are scored as “++”); Aβ40 Change Soluble [2, 8]: −− (decreases of 20 to 38% are scored as “−−”)
